Laboratory results from patent publication US7858072B2, “Stilbene derivatives and their use for binding and imaging amyloid plaques” (The Trustees of the University of Pennsylvania, priority 2004, dated 2010).
Like-named read-outs stand apart in the source and are kept apart here. Each block holds one compound with its values, some of them ahead of it.

Columns and labels:
fibrillar Aβ aggregates = fibrillar Aβ aggregates (Homo sapiens, UniProt P05067); details: Mathis et al. 1997; read-out: inhibition constants (Ki) for binding to fibrillar Aβ aggregates; cited from earlier work
Sequence of fibrillar Aβ aggregates (P05067 672-711 limits assumed): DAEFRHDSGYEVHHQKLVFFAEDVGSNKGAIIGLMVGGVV

[1] = biological target: Aβ plaques (postmortem AD brain homogenates) (Homo sapiens, UniProt P05067); assay: Binding assay: inhibition of [125I]IMPY binding in postmortem AD brain homogenates
Sequence of Aβ plaques (postmortem AD brain homogenates) (P05067 672-711 limits assumed): as above
Protocol: Postmortem brain tissues were obtained from AD patients at autopsy, and neuropathological diagnosis was confirmed by current criteria (NIA-Reagan Institute Consensus Group, 1997). Homogenates were then prepared from dissected gray matters from AD patients in phosphate buffered saline (PBS, pH 7.4) at the concentration of approximately 100 mg wet tissue/ml (motor-driven glass homogenizer with setting of 6 for 30 sec).
Binding assays were carried out in 12×75 mm borosilicate glass tubes. […] The mixture was incubated at 37° C. for 2 hr and the bound and the free radioactivity were separated by vacuum filtration through Whatman GF/B filters using a Brandel M-24R cell harvester followed by 2×3 ml washes of PBS at room temperature. Filters containing the bound ^125I ligand were assayed for radioactivity content in a gamma counter (Packard 5000) with 70% counting efficiency. […] The results of inhibition experiments were subjected to nonlinear regression analysis using EBDA by which Ki values were calculated.

[2] = Organ distribution in normal mice after iv injection of [18F]tracers; type: in vivo; details: ICR mice, [18F]tracer in 0.1% BSA
Protocol: The organs of interest were removed and weighed, and the radioactivity was assayed for radioactivity content with an automatic gamma counter. The percentage dose per organ was calculated by a comparison of the tissue counts to suitably diluted aliquots of the injected material. Total activities of blood were calculated under the assumption that they were 7% of the total body weight. The % dose/g of samples was calculated by comparing the sample counts with the count of the diluted initial dose.

AD cortical homogenates = details: Kung et al. 2004, cited from earlier work
Aβ plaques = details: cited from earlier work
[3] = Partition coefficient (1-octanol/buffer); type: physicochemical; details: 1-octanol / 0.1 M phosphate buffer, pH 7.4
Protocol: Partition coefficients were measured by mixing the [^18F]tracer with 3 g each of 1-octanol and buffer (0.1 M phosphate, pH 7.4) in a test tube. The test tube was vortexed for 3 min at room temperature, followed by centrifugation for 5 min. Two weighed samples (0.5 g each) from the 1-octanol and buffer layers were counted in a well counter. The partition coefficient was determined by calculating the ratio of cpm/g of 1-octanol to that of buffer. Samples from the 1-octanol layer were re-partitioned until consistent partitions of coefficient values were obtained (usually the 3rd or 4th partition). The measurement was done in triplicate and repeated three times.

SMILES: O=C(O)c1cc(/N=N/c2ccc(-c3ccc(/N=N/c4ccc(O)c(C(=O)O)c4)cc3)cc2)ccc1O [CG, chrysamine-G]
- Ki (fibrillar Aβ aggregates): 370 nM

SMILES: CNc1ccc(/C=C/c2ccc(O)cc2)cc1 [[^3H]SB-13]
- Kd (AD cortical homogenates): 2.4 ± 0.2 nM

SMILES: [3H]N(c1ccc(/C=C/c2ccc(O)cc2)cc1)C([3H])([3H])[3H] [[^3H]SB-13]
- binding capacity (AD cortical homogenates; AD cortical homogenates): 14-45 pmol/mg protein

SMILES: [11CH3]Nc1ccc(-c2nc3ccc(O)cc3s2)cc1 [[^11C]6-OH-BTA-1]
- retention in the cortex (Aβ plaques; patients with diagnosed mild AD): marked retention

SMILES: [11CH3]Nc1ccc(/C=C/c2ccc(O)cc2)cc1 [[^11C]SB-13]
- accumulation in the frontal cortex (Aβ plaques; mild to moderate AD patients, not in age-matched control subjects): high accumulation

SMILES: CNc1ccc(C=Cc2ccc(OCCOCC[18F])cc2)cc1 [[^18F]12a, [^18F][4-(2-{4-[2-(2-Fluoro-ethoxy)-ethoxy]-phenyl}-vinyl)-phenyl]-methyl-amine]
- logp value (lipophilicity) [3]: 2.52

SMILES: CNc1ccc(C=Cc2ccc(OCCOCCOCC[18F])cc2)cc1 [[^18F]12b, [^18F]{4-[2-(4-{2-[2-(2-Fluoro-ethoxy)-ethoxy]-ethoxy}-phenyl)-vinyl]-phenyl}-methyl-amine]
- Bone ([2]; 2 hr): 2.74 % dose/g
- logp value (lipophilicity) [3]: 2.41

SMILES: CNc1ccc(C=Cc2ccc(OCCOCCOCCOCC[18F])cc2)cc1 [[^18F]12c]
- logp value (lipophilicity) [3]: 2.05

SMILES: CNc1ccc(C=Cc2ccc(OCCOCCOCCOCCOCC[18F])cc2)cc1 [[^18F]12d]
- logp value (lipophilicity) [3]: 2.28

SMILES: CC(=C(C#N)C#N)c1ccc2cc(N(C)CCF)ccc2c1 [[^18F]FDDNP]
- relative residence time of the brain region of interest versus the pons (Aβ plaques; AD patients versus comparison subjects, PET): significantly higher in AD patients

Continued, values first:

- Ki ([1]; read-out: Ki ± SEM, X = OH): 5.2 ± 0.4 nM
SMILES: CNc1ccc(C=Cc2ccc(OCCOCCO)cc2)cc1 [Compound 3a, 2-(2-{4-[2-(4-Methylamino-phenyl)-vinyl]-phenoxy}-ethoxy)-ethanol]

- Ki ([1]; read-out: Ki ± SEM, X = OH): 2.8 ± 0.2 nM
SMILES: CNc1ccc(C=Cc2ccc(OCCOCCOCCO)cc2)cc1 [Compound 3b, 2-[-2-(2-{4-[2-(4-Methylamino-phenyl)-vinyl]-phenoxy}-ethoxy)-ethoxy]-ethanol]

- Ki ([1]; read-out: Ki ± SEM, X = OH): 4.6 ± 0.2 nM
SMILES: CNc1ccc(C=Cc2ccc(OCCOCCOCCOCCO)cc2)cc1 [Compound 3c, 2-{2-[2-(2-{4-[2-(4-Methylamino-phenyl)-vinyl]-phenoxy}-ethoxy)-ethoxy]-ethoxy}-ethanol]

- Ki ([1]; read-out: Ki ± SEM, X = OH): 5.2 ± 0.2 nM
SMILES: CNc1ccc(C=Cc2ccc(OCCOCCOCCOCCOCCO)cc2)cc1 [Compound 3d, 2-(2-{2-[2-(2-{4-[2-(4-Methylamino-phenyl)-vinyl]-phenoxy}-ethoxy)-ethoxy]-ethoxy}-ethoxy)-ethanol]

- Ki ([1]; read-out: Ki ± SEM, X = F): 2.9 ± 0.2 nM
- Blood ([2]; 2 min): 2.64 ± 0.55 % dose/g
- Bone ([2]; 2 min): 1.89 ± 0.25 % dose/g
- Brain ([2]; 2 min): 8.14 ± 2.03 % dose/g
- Blood ([2]; 30 min): 2.42 ± 0.27 % dose/g
- Bone ([2]; 30 min): 1.40 ± 0.11 % dose/g
- Brain ([2]; 30 min): 3.00 ± 0.16 % dose/g
- Blood ([2]; 1 hr): 2.04 ± 0.16 % dose/g
- Bone ([2]; 1 hr): 1.71 ± 0.23 % dose/g
- Brain ([2]; 1 hr): 2.60 ± 0.22 % dose/g
- Blood ([2]; 2 hr): 2.77 ± 0.63 % dose/g
- Bone ([2]; 2 hr): 2.88 ± 0.07 % dose/g
- Brain ([2]; 2 hr): 2.14 ± 0.06 % dose/g
SMILES: CNc1ccc(C=Cc2ccc(OCCOCCF)cc2)cc1 [Compound 12a, [4-(2-{4-[2-(2-Fluoro-ethoxy)-ethoxy]-phenyl}-vinyl)-phenyl]-methyl-amine]

- Blood ([2]; 2 min): 3.22 ± 0.20 % dose/g
- Bone ([2]; 2 min): 2.31 ± 0.12 % dose/g
- Brain ([2]; 2 min): 6.59 ± 0.19 % dose/g
- Blood ([2]; 30 min): 1.88 ± 0.08 % dose/g
- Bone ([2]; 30 min): 1.00 ± 0.02 % dose/g
- Brain ([2]; 30 min): 1.27 ± 0.03 % dose/g
- Blood ([2]; 1 hr): 1.81 ± 0.48 % dose/g
- Bone ([2]; 1 hr): 0.98 ± 0.27 % dose/g
- Brain ([2]; 1 hr): 1.20 ± 0.10 % dose/g
- Blood ([2]; 2 hr): 1.60 ± 0.12 % dose/g
- Bone ([2]; 2 hr): 1.50 ± 0.05 % dose/g
- Brain ([2]; 2 hr): 1.21 ± 0.06 % dose/g
SMILES: CNc1ccc(C=Cc2ccc(OCCOCCOCCOCCF)cc2)cc1 [Compound 12c, (4-{2-[4-(2-{2-[2-(2-Fluoro-ethoxy)-ethoxy]-ethoxy}-ethoxy)-phenyl]-vinyl}-phenyl)-methyl-amine]

- Ki ([1]; read-out: Ki ± SEM, X = F): 6 ± 0.8 nM
- Blood ([2]; 2 min): 4.99 ± 0.38 % dose/g
- Bone ([2]; 2 min): 2.24 ± 0.21 % dose/g
- Brain ([2]; 2 min): 7.30 ± 1.05 % dose/g
- Blood ([2]; 30 min): 4.66 ± 0.06 % dose/g
- Bone ([2]; 30 min): 2.29 ± 0.21 % dose/g
- Brain ([2]; 30 min): 2.43 ± 0.03 % dose/g
- Blood ([2]; 1 hr): 2.89 ± 0.11 % dose/g
- Bone ([2]; 1 hr): 1.66 ± 0.01 % dose/g
- Brain ([2]; 1 hr): 1.77 ± 0.11 % dose/g
- Blood ([2]; 2 hr): 2.59 ± 0.18 % dose/g
- Bone ([2]; 2 hr): 2.35 ± 0.27 % dose/g
- Brain ([2]; 2 hr): 1.62 ± 0.03 % dose/g
SMILES: CNc1ccc(C=Cc2ccc(OCCOCCOCCOCCOCCF)cc2)cc1 [Compound 12d, [4-(2-{4-[2-(2-{2-[2-(2-Fluoro-ethoxy)-ethoxy]-ethoxy}-ethoxy)-ethoxy]-phenyl}-vinyl)-phenyl]-methyl-amine]
